The results in this text go back to patent US10888541B2, “Method and compositions for treatment and prevention of broad spectrum virus ailments comprising a calcium channel blocker or a calmodulin blocker” (DR. KENNETH ADAMS MEDICINE PROFESSIONAL CORPORATION, priority 2009, dated 2021).

Assay [1] can be described thus: Case report: fever, chills, muscle aches, nausea and diarrhea. It counts as in vivo, human. The conditions noted are these: person; 120 mg tablets every 8 hours; within one hour of first tablet. From the text:
A person with a three day history of fever, chills, muscle aches and nausea. On the second and third days the patient developed increasing diarrhea. On the morning of the third day the patient was experiencing loose, watery stools with a cramps and lower abdominal pain.

Assay [2] can be described thus: Case report: Rheumatoid Arthritis of the hands, topical ointment. The conditions noted are these: for pain in hand: person, within hours of applying; for mobility of joints: sustained applications over several days.
In assay [3] the test system is viral upper respiratory infection. Briefly: Case report: viral upper respiratory infection, intranasal/throat spray.
From the text: person with symptoms of viral upper respiratory infection started experiencing nasal congestion and nasal discharge.
In another assay the test system is HIV. Briefly: Case report: HIV patient, T4 helper counts. It counts as in vivo, human. As to conditions: 240 mg (120 mg of verapamilSR) twice daily for 2 weeks.
In another assay the test system is Herpes Zoster infection. Briefly: Case report: Herpes Zoster infection. Format: in vivo, human. The conditions noted are these: elderly patient; 120 mg SR twice daily. The text has this: Elderly patient with Herpes Zoster infection on the upper left abdomen.
A short description of assay [4]: Case report: latex glove allergy (delayed hypersensitivity reaction). It counts as in vivo, human. From the text: A person surgeon with a latex glove allergy. Symptoms of a red eczematous rash develops when they use latex gloves.
The next assay relates to cold sores. Briefly: Case reports: recurrent cold sores, topical application. Format: in vivo, human. The conditions noted are these: Patient A, 100 mg/ml topically.
The next assay has as its system Genital Herpes. Briefly: Case report: recurrent Genital Herpes. Format: in vivo, human. The text has this: Patient with a long history of recurrent Genital Herpes was using Diltiazem.

Molecules are shown by their SMILES.

Turning to `COc1ccc(CCN(C)CCCC(C#N)(c2ccc(OC)c(OC)c2)C(C)C)cc1OC` (centres unmarked) [Verapamil, verapamil], the “abdominal cramping, stools and diarrhea” value in assay [1] was “abdominal cramping began subsiding and their stools began to become more formed and diarrhea improved”. In addition, in assay [2], the pain in hand entry was “significant reduction of pain in their hand” and the mobility of joints result was “improved mobility of joints”. For the same compound, the “time until nasal discharge stopped” value in assay [3] (0.2 ml of 2 mg/ml sprayed into each nostril and back of throat) was “approximately 20 minutes”. The upper respiratory symptoms entry in assay [3] (next day, after repeated 0.1 ml applications intranasally and to throat) is “cleared”. Also, the “nasal congestion and nasal discharge” value in assay [3] (person, 0.2 ml of 2 mg/ml sprayed into each nostril and back of throat, within minutes) was “reduction in nasal congestion and decreased nasal discharge”. For the same compound, the T4 helper counts result with HIV was “significant rise in T4 helper counts”. Also, in the assay on Herpes Zoster infection, the “pain, rash and healing of lesions” value was “reduced pain, reduced rash and rapid healing of lesions”. The “chronic rash from daily exposure to latex” value in assay [4] (200 mg/ml ointment) is on record as “improved within hours”. Moreover, the “delayed hypersensitivity reaction to latex gloves” value in assay [4] (200 mg/ml ointment applied prior to wearing latex gloves) was “prevented”.
For `COc1ccc([C@@H]2Sc3ccccc3N(CCN(C)C)C(=O)[C@@H]2OC(C)=O)cc1` [Diltiazem, diltiazem], in assay [2], the pain in hand entry is recorded as “significant reduction of pain in their hand” and the mobility of joints result is “improved mobility of joints”. In addition, in the assay with cold sores, the “cold sore infection when applied in the initial tingling phase” value is given as “the infection could be prevented”; the “severity and size of cold sore when application delayed until eruption visible” value was “minimize the severity, reduce the size”. In addition, the “time to complete healing clearance” value in the assay with cold sores (application delayed until eruption visible, usual 7 days) was in the range of 2 to 4 days. Also, the “frequency of genital herpes recurrences” value with Genital Herpes (after starting treatment, before: several episodes per year) was 1-2 episodes per year. The “size and healing of genital herpes episodes” value in the assay with Genital Herpes (when on treatment) is “much smaller and seemed to heal much quicker”.
